Measured values taken from ChEMBL document CHEMBL5096214, “Discovery of a new class of valosine containing protein (VCP/P97) inhibitors for the treatment of colorectal cancer” (Bioorg Med Chem, 2022).
Each block holds one molecule with its values, some of them ahead of it. The source made the active and inactive calls. The calls are words filed in the database; no cut-off is given here.

What was measured:
[1] = biological target: Transitional endoplasmic reticulum ATPase (Homo sapiens, UniProt P55072); assay: Inhibition of p97 (unknown origin) using ATP as substrate incubated for 60 mins by ADP-Glo reagent based luminescence assay
HCT-116 [2] = assay: Anti-proliferative activity against human HCT-116 cells assessed as inhibition of cell proliferation incubated for 72 hrs by CellTiter-Glo luminescent assay; type: functional, cell-based; settings: HCT-116, 72 h
[3] = Elimination half life in Sprague-Dawley rat at 1 mg/kg, iv measured for 24 hrs by LC-MS/MS analysis; type: ADME, organism-based; settings: in vivo, read-out: beta t1/2 (converted)
[4] = AUC (0 to t) in Sprague-Dawley rat at 1 mg/kg, iv measured for 24 hrs by LC-MS/MS analysis; type: ADME, organism-based; set-up: time 24 hrs, dose 1 mg/kg, route iv; settings: in vivo
[5] = AUC (0 to infinity) in Sprague-Dawley rat at 1 mg/kg, iv by LC-MS/MS analysis; type: ADME, organism-based; set-up: time infinity, dose 1 mg/kg, route iv; settings: in vivo
[6] = MRT in Sprague-Dawley rat at 1 mg/kg, iv measured for 24 hrs by LC-MS/MS analysis; type: ADME, organism-based; settings: in vivo
[7] = Cmax in Sprague-Dawley rat at 10 mg/kg, po measured for 30 hrs by LC-MS/MS analysis; type: ADME, organism-based; set-up: dose 10 mg/kg, time 30 hrs, route po; settings: in vivo
[8] = Tmax in Sprague-Dawley rat at 10 mg/kg, po measured for 30 hrs by LC-MS/MS analysis; type: ADME, organism-based; settings: in vivo
[9] = Elimination half life in Sprague-Dawley rat at 10 mg/kg, po measured for 30 hrs by LC-MS/MS analysis; type: ADME, organism-based; settings: in vivo, read-out: beta t1/2 (converted)
[10] = AUC (0 to t) in Sprague-Dawley rat at 10 mg/kg, po measured for 30 hrs by LC-MS/MS analysis; type: ADME, organism-based; set-up: dose 10 mg/kg, time 30 hrs, route po; settings: in vivo
[11] = AUC (0 to infinity) in Sprague-Dawley rat at 10 mg/kg, po by LC-MS/MS analysis; type: ADME, organism-based; set-up: time infinity, dose 10 mg/kg, route po; settings: in vivo
[12] = MRT in Sprague-Dawley rat at 10 mg/kg, po measured for 30 hrs by LC-MS/MS analysis; type: ADME, organism-based; settings: in vivo
[13] = Oral bioavailability in Sprague-Dawley rat at 10 mg/kg measured for 30 hrs by LC-MS/MS analysis; type: ADME, organism-based; settings: in vivo
[14] = Half life in human liver microsomes at 1 uM in presence of beta-NADPH measured for 60 mins by LC-MS/MS analysis; type: ADME, Microsome
[15] = Half life in mouse liver microsomes at 1 uM in presence of beta-NADPH measured for 60 mins by LC-MS/MS analysis; type: ADME, Microsome
[16] = Half life in rat liver microsomes at 1 uM in presence of beta-NADPH measured for 60 mins by LC-MS/MS analysis; type: ADME, Microsome
[17] = Half life in dog liver microsomes at 1 uM in presence of beta-NADPH measured for 60 mins by LC-MS/MS analysis; type: ADME, Canis lupus familiaris, Microsome
[18] = Half life in monkey liver microsomes at 1 uM in presence of beta-NADPH measured for 60 mins by LC-MS/MS analysis; type: ADME, Macaca mulatta, Microsome; settings: rhesus monkey
[19] = Intrinsic clearance in human liver microsomes at 1 uM in presence of beta-NADPH measured for 60 mins by LC-MS/MS analysis; type: ADME, Microsome; settings: read-out: CLH
[20] = Intrinsic clearance in mouse liver microsomes at 1 uM in presence of beta-NADPH measured for 60 mins by LC-MS/MS analysis; type: ADME, Microsome; settings: read-out: CLH
[21] = Intrinsic clearance in rat liver microsomes at 1 uM in presence of beta-NADPH measured for 60 mins by LC-MS/MS analysis; type: ADME, Microsome; settings: read-out: CLH
[22] = Intrinsic clearance in dog liver microsomes at 1 uM in presence of beta-NADPH measured for 60 mins by LC-MS/MS analysis; type: ADME, Canis lupus familiaris, Microsome; settings: read-out: CLH
[23] = Intrinsic clearance in monkey liver microsomes at 1 uM in presence of beta-NADPH measured for 60 mins by LC-MS/MS analysis; type: ADME, Macaca mulatta, Microsome; settings: rhesus monkey, read-out: CLH
[24] = Toxicity in BALB/c mouse xenografted with human HCT-116 cells assessed as body weight loss at 50 mg/kg, po qd for 21 days; type: organism-based; settings: in vivo, 504 h, time 21 day
[25] = Toxicity in BALB/c mouse xenografted with human HCT-116 cells assessed as side effects at 50 mg/kg, po qd for 21 days; type: organism-based; settings: in vivo, 504 h, time 21 day
[26] = Toxicity in BALB/c mouse xenografted with human HCT-116 cells assessed as side effects at 100 mg/kg, po measured on day 4; type: organism-based; settings: in vivo, 96 h, time 4 day
[27] = Toxicity in BALB/c mouse xenografted with human HCT-116 cells assessed as body weight loss at 100 mg/kg, po measured on day 4; type: organism-based; settings: in vivo, 96 h, time 4 day
[28] = Toxicity in BALB/c mouse xenografted with human HCT-116 cells assessed as animals death at 100 mg/kg, po measured on day 8; type: organism-based; settings: in vivo, 192 h, time 8 day
[29] = Cmax in Sprague-Dawley rat at 1 mg/kg, iv measured for 24 hrs by LC-MS/MS analysis; type: ADME, organism-based; set-up: dose 1 mg/kg, time 24 hrs, route iv; settings: in vivo
[30] = Tmax in Sprague-Dawley rat at 1 mg/kg, iv measured for 24 hrs by LC-MS/MS analysis; type: ADME, organism-based; settings: in vivo
HCT-116 [31] = assay: Anti-tumor activity against human HCT-116 cells xenografted in BALB/c mouse assessed as reduction in tumor volume at 100 mg/kg, po qd for 21 days; type: functional, organism-based; settings: time 21.0 day
[32] = Toxicity in BALB/c mouse xenografted with human HCT-116 cells assessed as body weight loss at 100 mg/kg, po qd for 21 days; type: organism-based; settings: in vivo, 504 h, time 21 day
[33] = Toxicity in BALB/c mouse xenografted with human HCT-116 cells assessed as side effects at 100 mg/kg, po qd for 21 days; type: organism-based; settings: in vivo, 504 h, time 21 day

Chain of Transitional endoplasmic reticulum ATPase (P55072 whole entry): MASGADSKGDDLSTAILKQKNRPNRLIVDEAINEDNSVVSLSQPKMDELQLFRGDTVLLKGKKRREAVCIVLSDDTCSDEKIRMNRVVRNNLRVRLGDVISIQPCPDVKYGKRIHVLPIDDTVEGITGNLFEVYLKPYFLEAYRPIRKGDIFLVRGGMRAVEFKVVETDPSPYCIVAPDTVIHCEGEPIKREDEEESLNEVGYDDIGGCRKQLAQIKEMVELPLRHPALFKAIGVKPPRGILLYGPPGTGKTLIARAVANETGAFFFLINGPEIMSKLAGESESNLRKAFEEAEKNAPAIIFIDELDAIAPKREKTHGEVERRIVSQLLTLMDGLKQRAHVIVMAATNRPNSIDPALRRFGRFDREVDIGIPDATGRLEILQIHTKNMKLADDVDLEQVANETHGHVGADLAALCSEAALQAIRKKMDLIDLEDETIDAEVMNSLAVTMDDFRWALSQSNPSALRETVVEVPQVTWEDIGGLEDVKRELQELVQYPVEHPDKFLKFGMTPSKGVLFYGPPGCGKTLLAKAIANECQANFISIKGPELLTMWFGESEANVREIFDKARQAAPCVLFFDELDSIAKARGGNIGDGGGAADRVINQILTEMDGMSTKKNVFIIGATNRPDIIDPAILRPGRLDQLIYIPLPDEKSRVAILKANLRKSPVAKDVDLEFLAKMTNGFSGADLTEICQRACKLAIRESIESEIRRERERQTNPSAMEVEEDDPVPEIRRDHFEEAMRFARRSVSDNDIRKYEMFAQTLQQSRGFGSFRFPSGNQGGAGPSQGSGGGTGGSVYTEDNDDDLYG

IC50 [1]: 185 nM
SMILES: Cc1cc2c(NC(=O)c3cccs3)cccc2n1-c1nc2c(c(NCc3cccc(O)c3)n1)CCC2

IC50 [1]: 233 nM
SMILES: Cc1cc2c(C(=N)N)cccc2n1-c1nc2c(c(NCc3cccc(O)c3)n1)CCC2

IC50 (HCT-116 [2]): 1000 nM | IC50 [1]: 54 nM
SMILES: CONC(=O)c1cccc2c1cc(C)n2-c1nc2c(c(NCc3cccc(B(O)O)c3)n1)CCC2

SMILES: Cc1cc2c(C(N)=O)cccc2n1-c1nc2c(c(NCc3ccccc3)n1)CCCN2
IC50 (HCT-116 [2]): 700 nM | IC50 [1]: 44 nM | half-life [3]: 22.8 min | AUC(0-t) at 24 h [4]: 390 ng·h/mL | AUC(0-inf) [5]: 398 ng·h/mL | MRT [6]: 25.2 min | Cmax [7]: 444 ng/mL | Tmax [8]: 30 min | half-life [9]: 73.8 min | AUC(0-t) at 30 h [10]: 779 ng·h/mL | AUC(0-inf) [11]: 796 ng·h/mL | MRT [12]: 96 min | bioavailability [13]: 20% | half-life at 1 µM [14]: 35.9 min | half-life at 1 µM [15]: 19.1 min | half-life at 1 µM [16]: 7.9 min | half-life at 1 µM [17]: 33 min | half-life at 1 µM [18]: 9.8 min | microsomal CLint at 1 µM [19]: 36.5 µL/min/mg | microsomal CLint at 1 µM [20]: 176 µL/min/mg | microsomal CLint at 1 µM [21]: 318 µL/min/mg | microsomal CLint at 1 µM [22]: 60 µL/min/mg | microsomal CLint at 1 µM [23]: 203 µL/min/mg | Activity [24]: Non-Toxic | Activity [25]: Non-Toxic | Activity [26]: Toxic | Activity [27]: Toxic | Activity [28]: Toxic

IC50 (HCT-116 [2]): 800 nM | IC50 [1]: 97 nM
SMILES: Cc1cc2c(NS(C)(=O)=O)cccc2n1-c1nc2c(c(NCc3cccc(O)c3)n1)CCC2

IC50 (HCT-116 [2]): 400 nM | IC50 [1]: 53 nM | Cmax [29]: 284 ng/mL | Tmax [30]: 4.8 min | half-life [3]: 168 min | AUC(0-t) at 24 h [4]: 142 ng·h/mL | AUC(0-inf) [5]: 147 ng·h/mL | MRT [6]: 67.2 min | Cmax [7]: 130 ng/mL | Tmax [8]: 30 min | half-life [9]: 228 min | AUC(0-t) at 30 h [10]: 283 ng·h/mL | AUC(0-inf) [11]: 345 ng·h/mL | MRT [12]: 276 min | bioavailability [13]: 23.5% | half-life at 1 µM [14]: 37.1 min | half-life at 1 µM [15]: 28.8 min | half-life at 1 µM [16]: 10.5 min | half-life at 1 µM [17]: 34.8 min | half-life at 1 µM [18]: 23.8 min | microsomal CLint at 1 µM [19]: 37.4 µL/min/mg | microsomal CLint at 1 µM [20]: 48.2 µL/min/mg | microsomal CLint at 1 µM [21]: 132 µL/min/mg | microsomal CLint at 1 µM [22]: 39.8 µL/min/mg | microsomal CLint at 1 µM [23]: 58.2 µL/min/mg
SMILES: Cc1cc2c(C(N)=O)cccc2n1-c1nc2c(c(NCc3cccc(O)c3)n1)CCC2
Activity (HCT-116 [31]): Active | Activity [32]: Non-Toxic | Activity [33]: Non-Toxic

IC50 [1]: 216 nM
SMILES: Cc1cc2c(NC(=O)c3cscn3)cccc2n1-c1nc2c(c(NCc3cccc(O)c3)n1)CCC2

IC50 (HCT-116 [2]): 1400 nM | IC50 [1]: 72 nM
SMILES: CCONC(=O)c1cccc2c1cc(C)n2-c1nc2c(c(NCc3cccc(B(O)O)c3)n1)CCC2

IC50 [1]: 154 nM
SMILES: Cc1cc2c(C(N)=O)cccc2n1-c1nc2c(c(NCc3cccc(N)c3)n1)CCC2

IC50 (HCT-116 [2]): 300 nM | IC50 [1]: 48 nM | half-life [3]: 50.4 min | AUC(0-t) at 24 h [4]: 94.8 ng·h/mL | AUC(0-inf) [5]: 108 ng·h/mL | MRT [6]: 73.8 min | Cmax [7]: 52.5 ng/mL | Tmax [8]: 30 min | half-life [9]: 153 min | AUC(0-t) at 30 h [10]: 108 ng·h/mL | AUC(0-inf) [11]: 121 ng·h/mL | MRT [12]: 201 min | bioavailability [13]: 11.1%
SMILES: CONC(=O)c1cccc2c1cc(C)n2-c1nc2c(c(NCc3cccc(O)c3)n1)CCC2

IC50 [1]: 863 nM
SMILES: CON(C)C(=O)c1cccc2c1cc(C)n2-c1nc2c(c(NCc3cccc(O)c3)n1)CCC2

IC50 (HCT-116 [2]): 1100 nM | IC50 [1]: 35 nM
SMILES: Cc1cc2c(C(=N)NO)cccc2n1-c1nc2c(c(NCc3cccc(O)c3)n1)CCC2

IC50 (HCT-116 [2]): 1200 nM | IC50 [1]: 49 nM
SMILES: Cc1cc2c(NC(=O)c3ccco3)cccc2n1-c1nc2c(c(NCc3cccc(O)c3)n1)CCC2

IC50 (HCT-116 [2]): 1200 nM | IC50 [1]: 26 nM
SMILES: C=CC(=O)Nc1cccc2c1cc(C)n2-c1nc2c(c(NCc3cccc(O)c3)n1)CCC2

IC50 [1]: 1220 nM
SMILES: CON(C)C(=O)c1cccc2c1cc(C)n2-c1nc2c(c(NCc3cccc(B(O)O)c3)n1)CCC2

IC50 [1]: 3510 nM
SMILES: Cc1cc2c(NC(=O)/C=C/c3ccccc3)cccc2n1-c1nc2c(c(NCc3cccc(O)c3)n1)CCC2

IC50 [1]: 2470 nM
SMILES: COc1ccc(/C=C/C(=O)Nc2cccc3c2cc(C)n3-c2nc3c(c(NCc4cccc(O)c4)n2)CCC3)cc1

IC50 (HCT-116 [2]): 2400 nM | IC50 [1]: 96 nM
SMILES: C/C=C/C(=O)Nc1cccc2c1cc(C)n2-c1nc2c(c(NCc3cccc(O)c3)n1)CCC2

IC50 (HCT-116 [2]): 600 nM | IC50 [1]: 31 nM
SMILES: CCONC(=O)c1cccc2c1cc(C)n2-c1nc2c(c(NCc3cccc(O)c3)n1)CCC2
